Where two headings read alike, the source gives them in different places.

Consider 12 compounds from publication PMC6264777, “New Catechol Derivatives of Safrole and Their Antiproliferative Activity towards Breast Cancer Cells” (Molecules, 2011).

One series concerns MCF-7 cells. Nature of the series: Sulforhodamine B in vitro growth inhibition assay, MCF-7. Conditions: read-out: IC50 (μM) MCF-7. The format is cell-based, human. The procedure: (§1) IC50 values of compounds 3-11, safrole, catechol 2 and the reference compound daunorubicin are summarized in Table 1 as the micromolar concentration that produces 50% cell growth inhibition after 72 hours of drug exposure.
(§2) The experimental cell cultures were obtained from American Type Culture Collection (Rockville, MD, USA). MCF-7, MDA-MB-231 cells were grown in DMEM-F12 medium containing 10% FCS, 100 U/mL penicillin, 100 µg/mL streptomycin and 1 mM glutamine. Cells are seeded into 96 well microtiter plates in 100 µL at plating density of 3 × 10^3 cells/well. After 24 h incubation at 37 °C (under a humidified 5% carbon dioxide to allow cell attachment) the cells were treated with different concentrations of drugs (safrole and derivatives) and incubated for 72 h under the same conditions. Stock solution of compounds was prepared in ethanol and the final concentration of this solvent was kept constant at 0.1%. Control cultures received 0.1% ethanol alone.
(§3) The sulforhodamine B assay according to the method of Skehan et al. was used with some modifications. Briefly, the cells were set up 3 × 10^3 cells per well of a 96-well, flat-bottomed 200 μL microplate. Cells were incubated at 37 °C in a humidified 5% CO2/95% air mixture and treated with the compounds at different concentrations for 72 hours. At the end of drug exposure, cells were fixed with 50% trichloroacetic acid at 4 °C (TCA final concentration 10%). After washing with destilled water, cells were stained with 0.1% sulforhodamine B (Sigma-Aldrich, St. Louis, MO, USA), dissolved in 1% acetic acid (50 µL/well) for 30 min, and subsequently washed with 1% acetic acid to remove unbound stain. Protein-bound stain was solubilized with 100 µL of 10 mM unbuffered Tris base. The cell density was determined using a […] plate reader (wavelength 540 nm). Values shown are the mean + SD three independent experiments in triplicate.

A further series relates to MDA-MB-231 cells. The series is described as follows: Sulforhodamine B in vitro growth inhibition assay, MDA-MB-231. The format is cell-based, human. Conditions: read-out: IC50 (μM) MDA-MB-231. The procedure: as §1, §2, §3
In series [1] the test system is dermal human fibroblast cells (DHF). Nature of the series: cells. The series is classed as cell-based. Conditions: for IC50: read-out: IC50 DHF.
In a further series the test system is various human cell types. Conditions: cited from earlier work.
Where [2] appears, read: 50% cell growth inhibition after 72 hours of drug exposure, SRB, mean ± SD, three independent experiments in triplicate.
[3] abbreviates: Homo sapiens, MCF7, 50% cell growth inhibition after 72 hours of drug exposure, SRB, mean ± SD, three independent experiments in triplicate.
Setting [4] is: Homo sapiens, MDA-MB-231, 50% cell growth inhibition after 72 hours of drug exposure, SRB, mean ± SD, three independent experiments in triplicate.
The mark [5] stands for this setting: Homo sapiens, Fibroblast, 50% cell growth inhibition after 72 hours of drug exposure, SRB, non-tumoral cells.

In general, IC50 refers to the point on the concentration scale where inhibition reaches its midpoint. Consider “4-allyl-1,2-phenylene diacetate [Compound 7]”, for which the IC50 in the series with MCF-7 cells (setting [2]) was more than 100 µM; in the series on MDA-MB-231 cells (setting [2]), 41.7 ± 7.4 µM; in series [1] (50% cell growth inhibition after 72 hours of drug exposure, SRB, non-tumoral cells) it was more than 100 µM.
For the compound `C=CCc1cc(O)c(O)cc1[N+](=O)[O-]` [Compound 2, 4-allyl-5-nitrobenzene-1,2-diol], the values for the IC50 (in the series on MCF-7 cells (setting [3]); in the series with MDA-MB-231 cells (setting [4]); in series [1] (setting [5])) were 55 ± 7.11 µM, 37.5 ± 2.65 µM and more than 100 µM, respectively.
As for `C=CCc1ccc(O)c(O)c1` [Compound 3, 4-allylbenzene-1,2-diol], the IC50 in the series on MCF-7 cells (setting [3]) was 98.4 ± 11.6 µM; in the series on MDA-MB-231 cells (setting [4]) it was 40.2 ± 6.9 µM; in series [1] (setting [5]), more than 100 µM. For the same compound, the “toxicity towards dermal human fibroblast (DHF cells)” value in series [1] is “without toxicity”.
As to `C=CCc1ccc(OC(C)=O)c(OC(C)=O)c1` [Compound 4, 4-allyl-1,2-phenylene diacetate], the IC50 in the series on MCF-7 cells (setting [3]) is more than 100 µM; in the series with MDA-MB-231 cells (setting [4]), 54.7 ± 6.6 µM; in series [1] (setting [5]), more than 100 µM.
As for `OCCCc1ccc(O)c(O)c1` [Compound 5, 4-(3-hydroxypropyl)benzene-1,2-diol], the IC50 with MCF-7 cells (setting [3]) was more than 100 µM; in the series with MDA-MB-231 cells (setting [4]), 54.3 ± 4.1 µM; in series [1] (setting [5]), more than 100 µM.
As to `CC(=O)OCCCc1ccc(OC(C)=O)c(OC(C)=O)c1` [Compound 6, 4-[3-(acetyloxy)propyl]-1,2-phenylene diacetate], the values for the IC50 (in the series on MCF-7 cells (setting [3]); in the series with MDA-MB-231 cells (setting [4]); in series [1] (setting [5])) were 97.8 ± 12.4 µM, 5.9 ± 0.8 µM and more than 100 µM, respectively.
For the compound `O=[N+]([O-])c1cc(O)c(O)cc1CCCO` [Compound 8, 4-(3-hydroxypropyl)-5-nitrobenzene-1,2-diol], the IC50 is 78.2 ± 8.9 µM with MCF-7 cells (setting [3]), 57.3 ± 4.1 µM with MDA-MB-231 cells (setting [4]) and more than 100 µM in series [1] (setting [5]).
`CC(O)Cc1cc(O)c(O)cc1[N+](=O)[O-]` (centres unmarked) [Compound 9, 4-(2-hydroxypropyl)-5-nitrobenzene-1,2-diol]: the IC50 (with MCF-7 cells (setting [3]); in the series on MDA-MB-231 cells (setting [4]); in series [1] (setting [5])) was more than 100 µM throughout.
For the compound `CC(=O)OCCCc1cc(OC(C)=O)c(OC(C)=O)cc1[N+](=O)[O-]` [Compound 10, 4-[3-(acetyloxy)propyl]-5-nitro-1,2-phenylene diacetate], the IC50 in the series on MCF-7 cells (setting [3]) was 51.3 ± 2.1 µM; in the series with MDA-MB-231 cells (setting [4]), 33.8 ± 4.9 µM; in series [1] (setting [5]) it was more than 100 µM.
The like results for `CC(=O)OCCCc1cc(O)c(O)cc1[N+](=O)[O-]` [Compound 11, 3-(4,5-dihydroxy-2-nitrophenyl)propyl acetate] were, in that order, 63.8 ± 5.5 µM, 27.1 ± 4.4 µM and more than 100 µM.
The corresponding values for `COc1cccc2c1C(=O)c1c(O)c3c(c(O)c1C2=O)C[C@@](O)(C(C)=O)C[C@@H]3O[C@H]1C[C@H](N)[C@H](O)[C@H](C)O1` [Daunorubicin, reference compound] are 0.19 ± 0.01 µM, 0.38 ± 0.06 µM and 14.3 ± 1.85 µM.
As for `C=CCc1ccc2c(c1)OCO2` [safrole, Safrole], the IC50 was more than 100 µM in the series with MCF-7 cells (Homo sapiens, MCF7, 72 h); more than 100 µM with MDA-MB-231 cells (Homo sapiens, MDA-MB-231, 72 h); more than 100 µM in series [1] (Homo sapiens, Fibroblast, 72 h). Further, in the series on various human cell types, the “concentrations at which safrole becomes cytotoxic” value is 5 to 10 mM.
